# In patent US9346809B2 (LEO PHARMA A/S, priority 2009, dated 2016):
# pEC50: −log10 of the molar value. Read-outs that look alike come from different tables or passages of the source.
# Columns and labels:
# Format in all cases: biochemical
# [1] = biological target: T1, JAK1 (aa 850-1154, catalytic domain, GST-tag) (Homo sapiens, UniProt P23458); experiment: JAK kinase assay (HTRF, phosphorylation of TK substrate-biotin), JAK1; conditions: ATP at Km (7 μM)
# T1 construct: JAK1 (aa 850-1154) and TYK2 (aa 871-1187) are expressed with an N-terminally fused GST-tag; GST (N); purchased Carna Biosciences, Inc; host or cells: baculovirus expression system
# Method in brief: (§1)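 Compound was mixed with TK substrate-biotin (1 μM final), then kinase plus ATP at its Km was added and left 20-30 min at room temperature. Detection mix with EDTA, Streptavidin-XL665 and STK Ab Cryptate stopped the reaction; after overnight dark incubation, HTRF was read and EC50 derived.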
# [2] = biological target: T2, JAK2 (catalytic domain, His-tag) (Homo sapiens, UniProt O60674); experiment: JAK kinase assay (HTRF, phosphorylation of TK substrate-biotin), JAK2; conditions: ATP at Km (4 μM)
# T2 construct: All four purified enzymes contain only the catalytic domain; His (N); purchased Carna Biosciences, Inc; host or cells: baculovirus expression system
# Method in brief: as §1
# [3] = biological target: T3, JAK3 (catalytic domain, His-tag) (Homo sapiens, UniProt P52333); experiment: JAK kinase assay (HTRF, phosphorylation of TK substrate-biotin), JAK3; conditions: ATP at Km (2 μM)
# T3 construct: All four purified enzymes contain only the catalytic domain; His (N); purchased Carna Biosciences, Inc; host or cells: baculovirus expression system
# Method in brief: as §1
# [4] = biological target: T4, TYK2 (aa 871-1187, catalytic domain, GST-tag) (Homo sapiens, UniProt P29597); experiment: JAK kinase assay (HTRF, phosphorylation of TK substrate-biotin), TYK2; conditions: ATP at Km (13 μM)
# T4 construct: JAK1 (aa 850-1154) and TYK2 (aa 871-1187) are expressed with an N-terminally fused GST-tag; GST (N); purchased Carna Biosciences, Inc; host or cells: baculovirus expression system
# T4 sequence (P29597 871-1187): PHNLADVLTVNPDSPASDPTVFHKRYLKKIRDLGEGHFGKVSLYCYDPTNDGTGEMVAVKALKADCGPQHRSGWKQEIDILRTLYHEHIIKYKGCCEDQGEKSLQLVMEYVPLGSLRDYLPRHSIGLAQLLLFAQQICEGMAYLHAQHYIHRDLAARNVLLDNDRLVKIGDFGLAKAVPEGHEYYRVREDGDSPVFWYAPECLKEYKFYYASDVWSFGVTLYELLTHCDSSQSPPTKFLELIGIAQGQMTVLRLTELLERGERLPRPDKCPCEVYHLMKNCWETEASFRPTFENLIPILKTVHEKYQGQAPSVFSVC
# Method in brief: as §1
# [5] = HTRF assay, read-out: JAK1 kinase inhibitory activity (EC50 indicator)
# [6] = HTRF assay, read-out: JAK2 kinase inhibitory activity (EC50 indicator)
# [7] = HTRF assay, read-out: JAK3 kinase inhibitory activity (EC50 indicator)
# [8] = HTRF assay, read-out: TYK2 kinase inhibitory activity (EC50 indicator)
# [9] = read-out: JAK1 kinase inhibitory activity (EC50 indicator)
# [10] = read-out: JAK2 kinase inhibitory activity (EC50 indicator)
# [11] = read-out: JAK3 kinase inhibitory activity (EC50 indicator)
# [12] = read-out: TYK2 kinase inhibitory activity (EC50 indicator)
# T1 sequence (P23458 850-1154): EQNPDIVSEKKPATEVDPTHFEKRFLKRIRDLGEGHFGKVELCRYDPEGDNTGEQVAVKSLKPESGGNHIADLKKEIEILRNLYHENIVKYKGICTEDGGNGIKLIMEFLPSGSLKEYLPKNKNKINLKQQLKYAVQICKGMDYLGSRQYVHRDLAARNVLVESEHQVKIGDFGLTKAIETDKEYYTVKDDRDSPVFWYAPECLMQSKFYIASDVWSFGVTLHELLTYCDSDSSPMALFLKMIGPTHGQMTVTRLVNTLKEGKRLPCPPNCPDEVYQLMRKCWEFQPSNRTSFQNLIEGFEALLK
# T2 sequence (O60674 849-1124 limits assumed): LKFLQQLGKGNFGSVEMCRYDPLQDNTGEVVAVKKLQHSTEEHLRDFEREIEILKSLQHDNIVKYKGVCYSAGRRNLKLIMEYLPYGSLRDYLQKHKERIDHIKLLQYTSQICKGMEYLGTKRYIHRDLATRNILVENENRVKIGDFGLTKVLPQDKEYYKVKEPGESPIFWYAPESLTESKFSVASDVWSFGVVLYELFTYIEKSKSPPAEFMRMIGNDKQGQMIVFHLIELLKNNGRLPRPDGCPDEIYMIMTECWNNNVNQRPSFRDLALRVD
# T3 sequence (P52333 822-1111 limits assumed): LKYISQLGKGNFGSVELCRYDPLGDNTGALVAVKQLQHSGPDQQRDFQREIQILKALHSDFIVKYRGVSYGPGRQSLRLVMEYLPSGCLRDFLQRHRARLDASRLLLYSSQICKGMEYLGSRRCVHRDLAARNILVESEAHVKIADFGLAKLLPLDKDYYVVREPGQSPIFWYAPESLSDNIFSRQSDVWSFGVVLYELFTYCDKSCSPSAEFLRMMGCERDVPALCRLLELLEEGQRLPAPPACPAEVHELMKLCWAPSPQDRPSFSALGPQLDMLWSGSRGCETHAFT
"pEC50 [1, 5]","pEC50 [2, 6]","pEC50 [3, 7]","pEC50 [4, 8]","pEC50 [1, 9]","pEC50 [2, 10]","pEC50 [3, 11]","pEC50 [4, 12]",Structure (SMILES),also measured
> 7.00,> 7.00,6.30 to 7.00,< 6.30,,,,,"CC(C)CNS(=O)(=O)c1csc(C(=O)N2CCN(c3ncnc4[nH]ccc34)CC23CC3)c1 [Example 423, 5-[7-(7H-Pyrrolo[2,3-d]pyrimidin-4-yl)-4,7-diaza-spiro[2.5]octane-4-carbonyl]-thiophene-3-sulfonic acid isobutyl-amide]",
,,,,6.30 to 7.00,> 7.00,6.30 to 7.00,< 6.30,"O=C([C@H]1CC[C@H](O)CC1)N1CCN(c2ncnc3[nH]ccc23)CC12CC2 [Example 158, (4-Hydroxy-cyclohexyl)-[7-(7H-pyrrolo[2,3-d]pyrimidin-4-yl)-4,7-diaza-spiro[2.5]oct-4-yl]-methanone]",
,,,,> 7.00,> 7.00,> 7.00,6.30 to 7.00,"O=C(CCC(F)(F)F)N1CCN(c2ncnc3[nH]ccc23)CC12CC2 [Example 28, 4,4,4-Trifluoro-1-[7-(7H-pyrrolo[2,3-d]pyrimidin-4-yl)-4,7-diazaspiro[2.5]oct-4-yl]butan-1-one]",
> 7.00,> 7.00,> 7.00,6.30 to 7.00,,,,,"CS(=O)(=O)c1ccc(C(=O)N2CCN(c3ncnc4[nH]ccc34)CC23CC3)cc1F [Example 370, (3-Fluoro-4-methanesulfonyl-phenyl)-[7-(7H-pyrrolo[2,3-d]pyrimidin-4-yl)-4,7-diaza-spiro[2.5]oct-4-yl]-methanone]",
,,,,> 7.00,> 7.00,> 7.00,> 7.00,"CC1CN(C(=O)Cc2ccc(C#N)cc2)C2(CC2)CN1c1ncnc2[nH]ccc12 (stereo not shown) [Example 147, 4-{2-[6-Methyl-7-(7H-pyrrolo[2,3-d]pyrimidin-4-yl)-4,7-diaza-spiro[2.5]oct-4-yl]-2-oxo-ethyl}-benzonitrile]",
> 7.00,> 7.00,> 7.00,> 7.00,,,,,"NS(=O)(=O)c1ccc(NC(=O)C(=O)N2CCN(c3ncnc4[nH]ccc34)CC23CC3)cc1 [Example 401, 2-Oxo-2-[7-(7H-pyrrolo[2,3-d]pyrimidin-4-yl)-4,7-diaza-spiro[2.5]oct-4-yl]-N-(4-sulfamoyl-phenyl)-acetamide]",
6.30 to 7.00,> 7.00,6.30 to 7.00,< 6.30,,,,,"N#Cc1ccccc1C(=O)N1[C@@H]2CC[C@@H]1CN(c1ncnc3[nH]ccc13)C2 [Example 249, 2-[3-(7H-Pyrrolo[2,3-d]pyrimidin-4-yl)-3,8-diaza-bicyclo[3.2.1]octane-8-carbonyl]-benzonitrile]",
,,,,6.30 to 7.00,6.30 to 7.00,6.30 to 7.00,< 6.30,"O=C(Cc1c[nH]c2ccccc12)N1[C@@H]2CC[C@@H]1CN(c1ncnc3[nH]ccc13)C2 [Example 170, 2-(1H-Indol-3-yl)-1-[3-(7H-pyrrolo[2,3-d]pyrimidin-4-yl)-3,8-diaza-bicyclo[3.2.1]oct-8-yl]-ethanone]",
< 6.30,< 6.30,6.30 to 7.00,< 6.30,,,,,"COc1cnc2[nH]ccc2c1N1CCN(C(=O)c2cc3ccccc3[nH]2)C2(CC2)C1 [Example 288, (1H-Indol-2-yl)-[7-(5-methoxy-1H-pyrrolo[2,3-b]pyridin-4-yl)-4,7-diaza-spiro[2.5]oct-4-yl]-methanone]",
> 7.00,> 7.00,6.30 to 7.00,> 7.00,,,,,"CCc1sc(C(=O)N2CCN(c3ncnc4[nH]ccc34)CC23CC3)cc1Br [Example 209, (4-Bromo-5-ethyl-thiophen-2-yl)-[7-(7H-pyrrolo[2,3-d]pyrimidin-4-yl)-4,7-diaza-spiro[2.5]oct-4-yl]-methanone]",
> 7.00,> 7.00,> 7.00,> 7.00,,,,,"COc1csc(C(=O)N2CCN(c3ncnc4[nH]ccc34)CC23CC3)c1 [Example 386, (4-Methoxy-thiophen-2-yl)-[7-(7H-pyrrolo[2,3-d]pyrimidin-4-yl)-4,7-diaza-spiro[2.5]oct-4-yl]-methanone]",
> 7.00,> 7.00,6.30 to 7.00,6.30 to 7.00,,,,,"CCCc1cc(C(=O)N2CCN(c3ncnc4[nH]ccc34)CC23CC3)cs1 [Example 207, (5-Propyl-thiophen-3-yl)-[7-(7H-pyrrolo[2,3-d]pyrimidin-4-yl)-4,7-diaza-spiro[2.5]oct-4-yl]-methanone]",
,,,,,,,,"CN(CCC#N)S(=O)(=O)N1CCN(c2ncnc3[nH]ccc23)CC12CC2 [Example 458, 7-(7H-Pyrrolo[2,3-d]pyrimidin-4-yl)-4,7-diaza-spiro[2.5]octane-4-sulfonic acid (2-cyano-ethyl)-methyl-amide]","pEC50 ([1]; HTRF assay, read-out: JAK1 kinase inhibitory activity (EC50)): > 7.00; pEC50 ([2]; HTRF assay, read-out: JAK2 kinase inhibitory activity (EC50)): > 7.00; pEC50 ([3]; HTRF assay, read-out: JAK3 kinase inhibitory activity (EC50)): > 7.00; pEC50 ([4]; HTRF assay, read-out: TYK2 kinase inhibitory activity (EC50)): > 7.00"
,,,,6.30 to 7.00,6.30 to 7.00,< 6.30,< 6.30,"CC(C)CNC(=S)N1[C@@H]2CC[C@H]1CN(c1ncnc3[nH]ccc13)C2 [Example 10, 3-(7H-Pyrrolo[2,3-d]pyrimidin-4-yl)-3,8-diaza-bicyclo[3.2.1]octane-8-carbothioic acid isobutyl-amide]",
,,,,6.30 to 7.00,> 7.00,6.30 to 7.00,< 6.30,"N#Cc1cccc(CC(=O)N2CCN(c3ncnc4[nH]ccc34)CC23CC3)c1 [Example 25, 3-{2-Oxo-2-[7-(7H-pyrrolo[2,3-d]pyrimidin-4-yl)-4,7-diazaspiro[2.5]oct-4-yl]-ethyl}benzonitrile]",
> 7.00,> 7.00,> 7.00,6.30 to 7.00,,,,,"COc1cc(S(N)(=O)=O)ccc1C(=O)N1CCN(c2ncnc3[nH]ccc23)CC12CC2 [Example 389, 3-Methoxy-4-[7-(7H-pyrrolo[2,3-d]pyrimidin-4-yl)-4,7-diaza-spiro[2.5]octane-4-carbonyl]-benzenesulfonamide]",
6.30 to 7.00,6.30 to 7.00,< 6.30,< 6.30,,,,,"O=C(c1ccccn1)N1CCN(c2ccnc3[nH]ccc23)CC12CC2 [Example 222, Pyridin-2-yl-[7-(1H-pyrrolo[2,3-b]pyridin-4-yl)-4,7-diaza-spiro[2.5]oct-4-yl]-methanone]",
> 7.00,> 7.00,6.30 to 7.00,< 6.30,,,,,"N#Cc1cccc(C(=O)N2CCN(c3ccnc4[nH]ccc34)CC23CC3)c1 [Example 227, 3-[7-(1H-Pyrrolo[2,3-b]pyridin-4-yl)-4,7-diaza-spiro[2.5]octane-4-carbonyl]-benzonitrile]",
6.30 to 7.00,6.30 to 7.00,> 7.00,< 6.30,,,,,"Cc1c[nH]c2ncnc(N3CCN(C(=O)Cc4ccc(C(F)(F)F)cc4)C4(CC4)C3)c12 [Example 331, 1-[7-(5-Methyl-7H-pyrrolo[2,3-d]pyrimidin-4-yl)-4,7-diaza-spiro[2.5]oct-4-yl]-2-(4-trifluoromethyl-phenyl)-ethanone]",
> 7.00,> 7.00,6.30 to 7.00,< 6.30,,,,,"O=C(c1ccncc1)N1[C@@H]2CC[C@@H]1CN(c1ncnc3[nH]ccc13)C2 [Example 242, Pyridin-4-yl-[3-(7H-pyrrolo[2,3-d]pyrimidin-4-yl)-3,8-diaza-bicyclo[3.2.1]oct-8-yl]-methanone]",
,,,,> 7.00,> 7.00,6.30 to 7.00,< 6.30,"N#Cc1ccc(C(=O)N2[C@@H]3CC[C@H]2CN(c2ncnc4[nH]ccc24)C3)cc1 [Example 31, 4-[3-(7H-Pyrrolo[2,3-d]pyrimidin-4-yl)-3,8-diazabicyclo[3.2.1]octane-8-carbonyl]benzonitrile]",
,,,,6.30 to 7.00,6.30 to 7.00,< 6.30,< 6.30,"O=C(c1cc2ccccc2s1)N1CCN(c2ccnc3[nH]ccc23)CC12CC2 [Example 82, Benzo[b]thiophen-2-yl-[7-(1H-pyrrolo[2,3-b]pyridin-4-yl)-4,7-diaza-spiro[2.5]oct-4-yl]-methanone]",
